{"source": "patent US11304926B2", "about": "“Application of transient receptor potential cation channel TRPV3 in developing drug for preventing or treating psoriasis” (CHINA PHARMACEUTICAL UNIVERSITY, priority 2019, dated 2022)", "biological_target": "T1, mTRPV3 (Mus musculus, UniProt Q8K424)", "T1 construct": "expressed in transfected cells", "T1 sequence (Q8K424 1-791)": "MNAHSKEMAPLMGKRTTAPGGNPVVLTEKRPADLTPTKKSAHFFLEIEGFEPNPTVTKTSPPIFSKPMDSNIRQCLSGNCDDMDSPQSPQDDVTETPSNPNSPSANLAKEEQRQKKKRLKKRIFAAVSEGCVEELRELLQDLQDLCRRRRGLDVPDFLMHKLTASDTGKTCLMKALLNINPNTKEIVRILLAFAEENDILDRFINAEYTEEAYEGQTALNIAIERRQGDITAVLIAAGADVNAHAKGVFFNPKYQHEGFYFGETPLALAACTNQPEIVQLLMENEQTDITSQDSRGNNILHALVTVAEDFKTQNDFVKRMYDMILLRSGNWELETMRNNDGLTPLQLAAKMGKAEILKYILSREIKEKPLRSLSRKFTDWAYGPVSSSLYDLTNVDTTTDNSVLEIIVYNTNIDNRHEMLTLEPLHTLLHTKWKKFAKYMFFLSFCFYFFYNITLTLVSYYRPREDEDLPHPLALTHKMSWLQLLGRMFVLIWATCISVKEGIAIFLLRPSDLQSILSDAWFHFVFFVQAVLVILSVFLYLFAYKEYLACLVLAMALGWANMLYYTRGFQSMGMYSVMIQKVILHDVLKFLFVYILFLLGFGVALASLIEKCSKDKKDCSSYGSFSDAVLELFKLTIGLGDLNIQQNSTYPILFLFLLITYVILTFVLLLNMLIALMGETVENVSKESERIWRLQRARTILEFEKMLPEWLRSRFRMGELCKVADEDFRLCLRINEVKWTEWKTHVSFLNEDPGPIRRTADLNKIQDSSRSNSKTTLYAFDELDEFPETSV", "experiment": "Intracellular calcium fluorescence (Fluo-4, FLIPR) in HEK-293 cells stably transfecting mTRPV3, 2-APB induced", "type": "cell-based", "conditions": "Scutellarein 10 μM, 2-APB 300 μM, mTRPV3-HEK-293", "method": "mTRPV3 plasmids were donated by Professor Jie Zheng from UC Davis. Transfection steps were as follows: HEK-293 cells with a confluence ranging from 70% to 80% and a good growth state were seeded into T-60 small dishes the day before transfection, each small dish contained 4×10^5 cells, and the cells were cultured without penicillin/streptomycin overnight at 37° C. in 5% CO2. 10 μL of plasmids (plasmid concentration was 1000 ng/μL) were diluted with 250 μl of DMEM (article number: 12800017, Gibco), and meanwhile, 10 μL of Lipofectamine 2000 (article number: 11668027, Gibco) was diluted into 250 μL of DMEM. […] Monoclone cells were selected by a limiting dilution method: the screened cells were digested and counted, and seeded into a 96-well plate in sequence at densities of 10^4 cells/well, 10^3 cells/well, 10^2 cells/well, 10 cells/well, and 1 cell/well. Under a fluorescence microscope, wells of separate cells with green fluorescence were labeled, and cells amplified from the wells were HEK-293 cells stably transfecting the mTRPV3. […] The cell plate was placed in a preheated FLIPR® ^TETRA (Molecular Devices, Sunnyvale, Calif., USA) at 30° C., and excited at a wavelength of 488 nm, and fluorescence signals were continuously recorded at a sampling frequency of 1 second at a wavelength range of 515 nm to 575 nm. […]", "note": "“Also recorded” adds a separate entry of the source.", "data": [{"smiles": "O=c1cc(-c2ccc(O)cc2)oc2cc(O)c(O)c(O)c12", "note": "[Scutellarein]", "values": [{"measurement": "inhibition of increase of intracellular calcium concentration (calcium influx) induced by 2-APB", "value": "could inhibit increase of the intracellular calcium concentration; also recorded: obvious inhibitory effect"}]}]}
